Assays:
[1] = target: Mast/stem cell growth factor receptor Kit (Homo sapiens) (UniProt P10721); test: Inhibition of human c-Kit at 500 nM by HotSpot assay relative to control
[2] = target: T1, Tyrosine-protein kinase Mer (Homo sapiens) (UniProt Q12866); test: Inhibition of human c-MER at 500 nM by HotSpot assay relative to control
T1 sequence (whole entry): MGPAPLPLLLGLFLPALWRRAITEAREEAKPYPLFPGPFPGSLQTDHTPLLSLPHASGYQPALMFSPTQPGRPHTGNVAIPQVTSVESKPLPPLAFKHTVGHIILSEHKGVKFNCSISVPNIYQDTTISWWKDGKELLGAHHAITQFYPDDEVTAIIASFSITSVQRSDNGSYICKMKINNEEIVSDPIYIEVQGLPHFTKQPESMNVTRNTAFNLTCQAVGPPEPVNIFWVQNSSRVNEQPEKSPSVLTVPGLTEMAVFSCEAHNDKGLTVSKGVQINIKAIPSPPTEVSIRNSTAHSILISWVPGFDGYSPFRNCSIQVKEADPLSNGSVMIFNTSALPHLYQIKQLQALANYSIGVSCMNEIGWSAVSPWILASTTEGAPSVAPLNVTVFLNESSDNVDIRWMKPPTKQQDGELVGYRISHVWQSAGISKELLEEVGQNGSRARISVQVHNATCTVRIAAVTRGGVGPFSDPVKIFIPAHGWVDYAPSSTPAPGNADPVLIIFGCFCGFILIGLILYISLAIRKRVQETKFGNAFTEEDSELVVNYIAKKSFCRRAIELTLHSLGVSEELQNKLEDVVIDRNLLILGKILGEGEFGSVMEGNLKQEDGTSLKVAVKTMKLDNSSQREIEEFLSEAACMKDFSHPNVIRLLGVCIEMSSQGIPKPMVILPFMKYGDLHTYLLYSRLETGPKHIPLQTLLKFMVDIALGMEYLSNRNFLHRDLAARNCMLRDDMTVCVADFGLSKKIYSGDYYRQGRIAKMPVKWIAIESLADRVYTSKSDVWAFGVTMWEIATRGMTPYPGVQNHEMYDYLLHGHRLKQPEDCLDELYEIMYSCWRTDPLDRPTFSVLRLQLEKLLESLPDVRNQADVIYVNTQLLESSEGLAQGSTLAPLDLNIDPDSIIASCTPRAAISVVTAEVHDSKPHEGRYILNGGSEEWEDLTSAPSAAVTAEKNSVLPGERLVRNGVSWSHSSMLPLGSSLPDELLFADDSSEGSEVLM

[3] = target: T2, Tyrosine-protein kinase JAK3 (Homo sapiens) (UniProt P52333); test: Inhibition of human JAK3 at 500 nM by HotSpot assay relative to control
T2 sequence (whole entry): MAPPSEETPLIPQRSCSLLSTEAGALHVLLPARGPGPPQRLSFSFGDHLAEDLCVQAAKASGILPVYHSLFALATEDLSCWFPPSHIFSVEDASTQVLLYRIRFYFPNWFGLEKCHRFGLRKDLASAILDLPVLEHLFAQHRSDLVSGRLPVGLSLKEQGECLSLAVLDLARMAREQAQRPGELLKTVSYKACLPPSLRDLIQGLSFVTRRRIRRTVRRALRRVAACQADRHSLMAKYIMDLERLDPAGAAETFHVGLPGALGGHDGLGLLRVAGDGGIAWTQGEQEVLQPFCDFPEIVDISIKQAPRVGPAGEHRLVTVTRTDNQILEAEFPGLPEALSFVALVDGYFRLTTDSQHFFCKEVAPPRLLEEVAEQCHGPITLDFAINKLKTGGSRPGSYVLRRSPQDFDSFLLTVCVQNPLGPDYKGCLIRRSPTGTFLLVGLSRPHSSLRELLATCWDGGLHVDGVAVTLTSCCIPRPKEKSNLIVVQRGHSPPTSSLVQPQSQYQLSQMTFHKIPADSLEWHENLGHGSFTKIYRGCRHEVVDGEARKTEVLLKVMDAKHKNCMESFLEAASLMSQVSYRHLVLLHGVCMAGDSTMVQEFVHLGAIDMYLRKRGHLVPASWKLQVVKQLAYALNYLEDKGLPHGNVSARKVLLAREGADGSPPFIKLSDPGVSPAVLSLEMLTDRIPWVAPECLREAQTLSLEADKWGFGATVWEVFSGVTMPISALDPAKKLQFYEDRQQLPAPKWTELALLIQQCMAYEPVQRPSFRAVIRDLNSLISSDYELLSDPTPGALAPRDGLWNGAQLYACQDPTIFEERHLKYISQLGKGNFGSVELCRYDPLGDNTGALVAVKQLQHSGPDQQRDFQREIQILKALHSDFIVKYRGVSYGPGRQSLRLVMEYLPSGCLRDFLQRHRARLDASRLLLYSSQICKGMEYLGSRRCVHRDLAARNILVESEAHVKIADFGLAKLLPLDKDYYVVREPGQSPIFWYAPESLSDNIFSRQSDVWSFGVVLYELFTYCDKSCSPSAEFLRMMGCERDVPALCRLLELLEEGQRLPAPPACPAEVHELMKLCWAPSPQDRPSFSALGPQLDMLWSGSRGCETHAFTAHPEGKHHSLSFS

[4] = target: T3, cGMP-dependent protein kinase 2 (Homo sapiens) (UniProt Q13237); test: Inhibition of human PRKG2 at 500 nM by HotSpot assay relative to control
T3 sequence (whole entry): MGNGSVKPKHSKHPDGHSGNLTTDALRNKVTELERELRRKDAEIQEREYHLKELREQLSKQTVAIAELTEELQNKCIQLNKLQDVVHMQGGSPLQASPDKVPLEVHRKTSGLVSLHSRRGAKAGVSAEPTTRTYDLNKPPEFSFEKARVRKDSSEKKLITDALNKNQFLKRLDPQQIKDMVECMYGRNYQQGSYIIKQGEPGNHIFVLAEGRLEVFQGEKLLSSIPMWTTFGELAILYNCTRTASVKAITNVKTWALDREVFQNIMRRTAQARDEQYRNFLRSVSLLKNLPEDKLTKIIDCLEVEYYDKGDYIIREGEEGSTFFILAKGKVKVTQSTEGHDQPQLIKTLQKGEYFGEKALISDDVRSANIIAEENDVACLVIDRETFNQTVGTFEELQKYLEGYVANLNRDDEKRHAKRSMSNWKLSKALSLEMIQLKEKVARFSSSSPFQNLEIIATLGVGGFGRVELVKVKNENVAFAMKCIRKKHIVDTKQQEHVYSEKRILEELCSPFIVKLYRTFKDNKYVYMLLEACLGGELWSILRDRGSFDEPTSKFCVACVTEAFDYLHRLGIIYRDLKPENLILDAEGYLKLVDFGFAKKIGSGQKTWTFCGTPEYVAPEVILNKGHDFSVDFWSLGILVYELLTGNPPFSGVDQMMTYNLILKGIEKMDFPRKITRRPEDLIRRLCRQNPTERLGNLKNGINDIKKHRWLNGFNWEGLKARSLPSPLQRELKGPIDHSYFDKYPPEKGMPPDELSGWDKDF

[5] = target: NT-3 growth factor receptor (Homo sapiens) (UniProt Q16288); test: Inhibition of human TRKC at 500 nM by HotSpot assay relative to control
NT-3 growth factor receptor (Homo sapiens), sequence (Q16288 32-839 limits assumed): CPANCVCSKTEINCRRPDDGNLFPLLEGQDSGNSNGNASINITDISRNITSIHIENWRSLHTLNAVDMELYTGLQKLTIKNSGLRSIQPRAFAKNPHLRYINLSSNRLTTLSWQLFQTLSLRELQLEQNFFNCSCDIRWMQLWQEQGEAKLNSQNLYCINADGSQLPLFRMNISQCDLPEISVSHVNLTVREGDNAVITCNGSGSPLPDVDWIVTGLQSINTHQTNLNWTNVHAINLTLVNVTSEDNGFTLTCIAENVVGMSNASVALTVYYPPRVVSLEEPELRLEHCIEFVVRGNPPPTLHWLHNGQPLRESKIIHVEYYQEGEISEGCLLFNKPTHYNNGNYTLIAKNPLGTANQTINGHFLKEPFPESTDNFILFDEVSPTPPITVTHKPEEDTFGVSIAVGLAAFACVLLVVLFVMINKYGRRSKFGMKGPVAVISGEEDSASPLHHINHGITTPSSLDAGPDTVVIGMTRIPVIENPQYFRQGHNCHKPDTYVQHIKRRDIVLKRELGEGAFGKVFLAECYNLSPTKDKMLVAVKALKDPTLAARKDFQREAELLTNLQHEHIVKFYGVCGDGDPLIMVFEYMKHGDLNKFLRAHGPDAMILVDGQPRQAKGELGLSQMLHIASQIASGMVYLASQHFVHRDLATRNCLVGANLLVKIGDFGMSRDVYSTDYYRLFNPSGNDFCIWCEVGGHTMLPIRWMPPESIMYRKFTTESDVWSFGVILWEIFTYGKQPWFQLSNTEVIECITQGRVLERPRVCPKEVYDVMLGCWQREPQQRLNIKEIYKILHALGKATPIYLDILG

Mast/stem cell growth factor receptor Kit (Homo sapiens), sequence (P10721 whole entry): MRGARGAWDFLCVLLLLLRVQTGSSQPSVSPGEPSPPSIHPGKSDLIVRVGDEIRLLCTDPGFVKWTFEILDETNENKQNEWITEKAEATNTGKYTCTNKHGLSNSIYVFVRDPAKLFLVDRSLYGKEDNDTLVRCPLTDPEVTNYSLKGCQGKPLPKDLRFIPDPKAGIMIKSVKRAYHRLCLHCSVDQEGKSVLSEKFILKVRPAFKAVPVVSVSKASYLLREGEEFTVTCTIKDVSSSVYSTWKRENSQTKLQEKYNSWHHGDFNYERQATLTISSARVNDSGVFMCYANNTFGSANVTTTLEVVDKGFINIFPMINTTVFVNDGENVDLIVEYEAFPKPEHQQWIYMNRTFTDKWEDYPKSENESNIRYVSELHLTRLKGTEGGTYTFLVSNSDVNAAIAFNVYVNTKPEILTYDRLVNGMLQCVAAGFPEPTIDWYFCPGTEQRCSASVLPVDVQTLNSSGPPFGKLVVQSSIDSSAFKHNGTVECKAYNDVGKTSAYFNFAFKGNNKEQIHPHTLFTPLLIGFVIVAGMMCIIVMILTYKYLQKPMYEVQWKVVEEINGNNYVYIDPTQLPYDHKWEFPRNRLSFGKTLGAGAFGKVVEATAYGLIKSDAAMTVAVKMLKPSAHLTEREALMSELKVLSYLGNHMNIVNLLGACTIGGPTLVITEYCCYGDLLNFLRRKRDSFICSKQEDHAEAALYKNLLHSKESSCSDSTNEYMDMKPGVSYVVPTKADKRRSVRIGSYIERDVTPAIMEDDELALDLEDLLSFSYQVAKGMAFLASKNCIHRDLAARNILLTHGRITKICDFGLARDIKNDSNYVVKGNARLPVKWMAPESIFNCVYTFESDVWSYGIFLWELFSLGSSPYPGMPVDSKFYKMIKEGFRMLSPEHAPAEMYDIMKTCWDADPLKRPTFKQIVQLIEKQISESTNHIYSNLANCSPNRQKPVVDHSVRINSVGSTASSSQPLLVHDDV

## Nc1n[nH]c2nnc(-c3c(-c4ccccc4)nn4ccccc34)cc12
[1]
  inhibition: 2.89%
[2]
  inhibition: 23.6%
[3]
  inhibition: -4.59%
[4]
  inhibition: -3.62%
[5]
  inhibition: 23.4%

## Oc1n[nH]c2nnc(-c3c(-c4ccccc4)nn4ccccc34)cc12
[1]
  inhibition: 0.91%
[2]
  inhibition: 2%
[3]
  inhibition: -3.22%
[4]
  inhibition: 1.76%
[5]
  inhibition: 2.25%
